The subject of data set [1] is LLC-PK1. The data set is described as follows: Ratio of permeability from basolateral to apical side to apical to basolateral side of pig LLC-PK1 cells expressing P-gp. Format: ADME, cell-based, Sus scrofa.
A short description of data set [2]: Binding affinity to T-type calcium channel.
A short description of data set [3]: Bioavailability in rat at 10 mg/kg. Format: ADME, organism-based. The conditions noted are these: in vivo.
The target in data set [4] is Voltage-gated inwardly rectifying potassium channel KCNH2 (Homo sapiens, UniProt Q12809). Nature of the data set: Displacement of […] from human ERG in HEK293 cells. Format: cell-based.
Voltage-gated inwardly rectifying potassium channel KCNH2, sequence (Q12809 whole entry): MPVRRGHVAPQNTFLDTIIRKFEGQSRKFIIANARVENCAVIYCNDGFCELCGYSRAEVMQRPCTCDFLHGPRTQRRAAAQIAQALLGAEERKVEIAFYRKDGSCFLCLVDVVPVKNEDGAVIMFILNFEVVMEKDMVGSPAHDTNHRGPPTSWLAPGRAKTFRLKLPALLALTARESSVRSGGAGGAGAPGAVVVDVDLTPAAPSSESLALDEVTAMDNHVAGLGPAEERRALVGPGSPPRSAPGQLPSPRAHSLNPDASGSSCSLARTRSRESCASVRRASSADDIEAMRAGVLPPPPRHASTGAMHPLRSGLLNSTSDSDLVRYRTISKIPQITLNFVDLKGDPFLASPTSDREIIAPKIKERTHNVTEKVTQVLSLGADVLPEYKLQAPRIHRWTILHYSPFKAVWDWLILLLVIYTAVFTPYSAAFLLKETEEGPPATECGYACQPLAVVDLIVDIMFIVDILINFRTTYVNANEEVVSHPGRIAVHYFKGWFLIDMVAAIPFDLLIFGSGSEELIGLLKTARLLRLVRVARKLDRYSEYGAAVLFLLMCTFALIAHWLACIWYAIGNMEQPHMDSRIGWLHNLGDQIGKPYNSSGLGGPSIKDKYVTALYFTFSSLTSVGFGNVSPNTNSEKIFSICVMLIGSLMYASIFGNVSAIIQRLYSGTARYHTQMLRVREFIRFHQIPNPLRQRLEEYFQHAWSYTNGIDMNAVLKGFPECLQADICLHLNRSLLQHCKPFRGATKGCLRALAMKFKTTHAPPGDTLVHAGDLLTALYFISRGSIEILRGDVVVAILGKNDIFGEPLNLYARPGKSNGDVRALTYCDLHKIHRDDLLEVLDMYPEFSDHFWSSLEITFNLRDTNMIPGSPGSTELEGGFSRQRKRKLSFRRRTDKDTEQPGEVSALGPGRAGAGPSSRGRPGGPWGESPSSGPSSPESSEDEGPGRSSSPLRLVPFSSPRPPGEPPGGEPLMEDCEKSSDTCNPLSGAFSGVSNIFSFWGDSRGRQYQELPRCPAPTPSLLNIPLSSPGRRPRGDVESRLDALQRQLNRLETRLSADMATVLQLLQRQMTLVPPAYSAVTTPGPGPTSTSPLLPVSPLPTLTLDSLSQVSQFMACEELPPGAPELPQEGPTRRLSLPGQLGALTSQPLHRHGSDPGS
Data set [5] is described as follows: Plasma protein binding in rat assessed as fraction unbound at 5 uM. Format: ADME, cell-free.
Data set [6] in a line: Antagonist activity at depolarized T-type calcium channel by FLIPR assay. Format: functional.
Data set [7] is described as follows: Bioavailability in dog at 10 mg/kg. The conditions noted are these: in vivo. Format: ADME, organism-based, Canis lupus familiaris.
Data set [8] in a line: Half life in rat at 10 mg/kg. Format: ADME, organism-based. More on the design: dose 10 mg/kg. The note with it: in vivo.
Data set [9] is described as follows: Plasma protein binding in dog assessed as fraction unbound at 5 uM. Format: ADME, cell-free, Canis lupus familiaris.
Data set [10] in a line: Antagonist activity at hyperpolarized T-type calcium channel by FLIPR assay. Format: functional.
The nature of data set [11]: Antagonist activity at L-type calcium channel by FLIPR assay. Format: functional.
Data set [12] in a line: Volume of distribution at steady state in dog at 10 mg/kg. Format: ADME, organism-based, Canis lupus familiaris. Set-up: dose 10 mg/kg. The conditions noted are these: in vivo, read-out: Vdss.
Data set [13] can be described thus: Half life in dog at 10 mg/kg. The note with it: in vivo. More on the design: dose 10 mg/kg. Format: ADME, organism-based, Canis lupus familiaris.
The nature of data set [14]: Systemic clearance in dog at 10 mg/kg. Format: ADME, organism-based, Canis lupus familiaris. More on the design: dose 10 mg/kg. The conditions noted are these: in vivo.
For data set [15], the system named is P-gp. Nature of the data set: Permeability across pig LLC-PK1 cells expressing P-gp. Format: ADME, cell-based, Sus scrofa.
Data set [16] can be described thus: Ratio of IC50 for hyperpolarized T-type calcium channel to IC50 for depolarized T-type calcium channel.
The target in data set [17] is T1, PXR (NR1I2) (Homo sapiens, UniProt O75469).
T1 sequence (O75469 whole entry): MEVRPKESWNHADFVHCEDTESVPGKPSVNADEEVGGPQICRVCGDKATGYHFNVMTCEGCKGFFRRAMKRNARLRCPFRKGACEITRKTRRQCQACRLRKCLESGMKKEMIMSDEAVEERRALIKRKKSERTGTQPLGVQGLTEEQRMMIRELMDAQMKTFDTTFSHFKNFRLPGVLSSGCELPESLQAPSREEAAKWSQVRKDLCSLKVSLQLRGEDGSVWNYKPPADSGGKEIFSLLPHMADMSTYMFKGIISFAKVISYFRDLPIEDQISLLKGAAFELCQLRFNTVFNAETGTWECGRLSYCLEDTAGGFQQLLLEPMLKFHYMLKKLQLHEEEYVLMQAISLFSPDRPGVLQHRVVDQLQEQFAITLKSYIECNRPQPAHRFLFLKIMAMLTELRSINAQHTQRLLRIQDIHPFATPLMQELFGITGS
Nature of the data set: Activity at PXR at 10 uM relative to rifampicin. The conditions noted are these: read-out: Activity.

Data set [18] has as its system Liver microsomes. The data set is described as follows: Covalent protein binding in human liver microsomes assessed as GSH adduct formation measured per mg protein at 10 uM after 60 mins in presence of NADPH by NMR spectroscopy. Format: ADME, Microsome. The note with it: 1 h.
For data set [19], the system named is Rattus norvegicus. The data set is described as follows: Anticonvulsant activity in WAG/Rij rat assessed as inhibition of seizure at 3 mg/kg, po measured after 4 hrs. Format: functional.
Data set [20] in a line: Systemic clearance in rat at 10 mg/kg. The note with it: in vivo. Set-up: dose 10 mg/kg. Format: ADME, organism-based.
Data set [21] can be described thus: Volume of distribution at steady state in rat at 10 mg/kg. Format: ADME, organism-based. More on the design: dose 10 mg/kg. The note with it: in vivo, read-out: Vdss.
Data set [22] can be described thus: Plasma protein binding in human assessed as fraction unbound at 5 uM. Format: ADME, cell-free.
The target in data set [23] is Voltage-gated potassium channel, IKs; KCNQ1(Kv7.1)/KCNE1(MinK) (Homo sapiens, UniProt P51787+P15382). The data set is described as follows: Inhibition of IKs. Format: protein-complex assay.
The subject of data set [24] is Liver microsomes. The data set is described as follows: Covalent protein binding in human liver microsomes assessed per mg protein at 10 uM after 60 mins in presence of NADPH by NMR spectroscopy. Format: ADME, Microsome. The note with it: 1 h.
Data set [25] has as its system Rattus norvegicus. Nature of the data set: Effect on sleep wake cycle in po dosed rat assessed as increase in delta sleep administered daily 30 mins before inactive phase measured 0.5 to 2 hrs post administration. Format: functional, organism-based.
The nature of data set [26]: Half life in rhesus monkey at 10 mg/kg. Format: ADME, organism-based, Macaca mulatta. More on the design: dose 10 mg/kg. The note with it: in vivo.
Data set [27] can be described thus: Systemic clearance in rhesus monkey at 10 mg/kg. The conditions noted are these: in vivo. Set-up: dose 10 mg/kg. Format: ADME, organism-based, Macaca mulatta.
Data set [28] in a line: Half life in rat at 5 mg/kg, po. Set-up: dose 5 mg/kg, route oral. The note with it: in vivo. Format: ADME, organism-based.
A short description of data set [29]: Bioavailability in rhesus monkey at 10 mg/kg. Format: ADME, organism-based, Macaca mulatta. The note with it: in vivo.
Data set [30] can be described thus: Inhibition of L-type calcium channel at 30 uM.
The target in data set [31] is hERG (KCNH2) (Homo sapiens, UniProt Q12809). The data set is described as follows: Inhibition of human ERG at 30 uM.
hERG (KCNH2), sequence (Q12809 whole entry): as the sequence (Q12809 whole entry) above
A short description of data set [32]: Apparent terminal half life in human at 20 mg, po. The note with it: in vivo, read-out: betat1/2(app) (converted). Format: ADME, organism-based.
Data set [33] concerns the target T2, Voltage-dependent T-type calcium channel subunit alpha-1I (Homo sapiens, UniProt Q9P0X4). Nature of the data set: Antagonist activity at Cav3.3 at -80 mV holding potential by whole cell patch clamp analysis. Format: functional. For orientation: Patch clamp records ionic current or voltage across a cell membrane.
The target in data set [34] is T2, Voltage-dependent T-type calcium channel subunit alpha-1I. Nature of the data set: Antagonist activity at Cav3.3 at -100 mV holding potential by whole cell patch clamp analysis. Format: functional.
Data set [35] relates to Rattus norvegicus. The data set is described as follows: Effect on sleep wake cycle in rat assessed as suppression of active wake time at 5 mg/kg, po administered daily 30 mins before inactive phase. Format: functional.
The nature of data set [36]: Plasma protein binding in rhesus monkey assessed as fraction unbound at 5 uM. Format: ADME, Macaca mulatta.
Data set [37] is described as follows: Inhibition of Sodium channel. The note with it: concentration not given here.
The nature of data set [38]: Volume of distribution at steady state in rhesus monkey at 10 mg/kg. The note with it: in vivo, read-out: Vdss. Set-up: dose 10 mg/kg. Format: ADME, organism-based, Macaca mulatta.
Data set [39] in a line: Cmax in human at 20 mg, po. The conditions noted are these: in vivo. More on the design: dose 20 mg, route oral. Format: ADME, organism-based.

These results are taken from ChEMBL document CHEMBL2150960 (ACS Med Chem Lett, 2010).

The Ki is a dissociation constant, usually derived from enzyme kinetics or from competition with a known ligand. What is called bioavailability is the share of a dose that reaches the circulation, judged against a reference dose that is usually intravenous. Broadly, the IC50 is the concentration that inhibits the measured activity by half. By fraction unbound is commonly meant the share of the substance not bound to proteins or other matrix. One may read the clearance as a measure of how efficiently the substance is removed, as volume per time. The term Papp denotes the rate of passage across a membrane or cell layer, normalised by area and donor concentration. What is called inhibition in vivo is how much of the control response was suppressed. As usually defined, the inhibition is the percentage by which the read-out fell short of the control. For orientation: Cmax means the maximum level reached in the sampled fluid or tissue.

T2 sequence (Q9P0X4 whole entry): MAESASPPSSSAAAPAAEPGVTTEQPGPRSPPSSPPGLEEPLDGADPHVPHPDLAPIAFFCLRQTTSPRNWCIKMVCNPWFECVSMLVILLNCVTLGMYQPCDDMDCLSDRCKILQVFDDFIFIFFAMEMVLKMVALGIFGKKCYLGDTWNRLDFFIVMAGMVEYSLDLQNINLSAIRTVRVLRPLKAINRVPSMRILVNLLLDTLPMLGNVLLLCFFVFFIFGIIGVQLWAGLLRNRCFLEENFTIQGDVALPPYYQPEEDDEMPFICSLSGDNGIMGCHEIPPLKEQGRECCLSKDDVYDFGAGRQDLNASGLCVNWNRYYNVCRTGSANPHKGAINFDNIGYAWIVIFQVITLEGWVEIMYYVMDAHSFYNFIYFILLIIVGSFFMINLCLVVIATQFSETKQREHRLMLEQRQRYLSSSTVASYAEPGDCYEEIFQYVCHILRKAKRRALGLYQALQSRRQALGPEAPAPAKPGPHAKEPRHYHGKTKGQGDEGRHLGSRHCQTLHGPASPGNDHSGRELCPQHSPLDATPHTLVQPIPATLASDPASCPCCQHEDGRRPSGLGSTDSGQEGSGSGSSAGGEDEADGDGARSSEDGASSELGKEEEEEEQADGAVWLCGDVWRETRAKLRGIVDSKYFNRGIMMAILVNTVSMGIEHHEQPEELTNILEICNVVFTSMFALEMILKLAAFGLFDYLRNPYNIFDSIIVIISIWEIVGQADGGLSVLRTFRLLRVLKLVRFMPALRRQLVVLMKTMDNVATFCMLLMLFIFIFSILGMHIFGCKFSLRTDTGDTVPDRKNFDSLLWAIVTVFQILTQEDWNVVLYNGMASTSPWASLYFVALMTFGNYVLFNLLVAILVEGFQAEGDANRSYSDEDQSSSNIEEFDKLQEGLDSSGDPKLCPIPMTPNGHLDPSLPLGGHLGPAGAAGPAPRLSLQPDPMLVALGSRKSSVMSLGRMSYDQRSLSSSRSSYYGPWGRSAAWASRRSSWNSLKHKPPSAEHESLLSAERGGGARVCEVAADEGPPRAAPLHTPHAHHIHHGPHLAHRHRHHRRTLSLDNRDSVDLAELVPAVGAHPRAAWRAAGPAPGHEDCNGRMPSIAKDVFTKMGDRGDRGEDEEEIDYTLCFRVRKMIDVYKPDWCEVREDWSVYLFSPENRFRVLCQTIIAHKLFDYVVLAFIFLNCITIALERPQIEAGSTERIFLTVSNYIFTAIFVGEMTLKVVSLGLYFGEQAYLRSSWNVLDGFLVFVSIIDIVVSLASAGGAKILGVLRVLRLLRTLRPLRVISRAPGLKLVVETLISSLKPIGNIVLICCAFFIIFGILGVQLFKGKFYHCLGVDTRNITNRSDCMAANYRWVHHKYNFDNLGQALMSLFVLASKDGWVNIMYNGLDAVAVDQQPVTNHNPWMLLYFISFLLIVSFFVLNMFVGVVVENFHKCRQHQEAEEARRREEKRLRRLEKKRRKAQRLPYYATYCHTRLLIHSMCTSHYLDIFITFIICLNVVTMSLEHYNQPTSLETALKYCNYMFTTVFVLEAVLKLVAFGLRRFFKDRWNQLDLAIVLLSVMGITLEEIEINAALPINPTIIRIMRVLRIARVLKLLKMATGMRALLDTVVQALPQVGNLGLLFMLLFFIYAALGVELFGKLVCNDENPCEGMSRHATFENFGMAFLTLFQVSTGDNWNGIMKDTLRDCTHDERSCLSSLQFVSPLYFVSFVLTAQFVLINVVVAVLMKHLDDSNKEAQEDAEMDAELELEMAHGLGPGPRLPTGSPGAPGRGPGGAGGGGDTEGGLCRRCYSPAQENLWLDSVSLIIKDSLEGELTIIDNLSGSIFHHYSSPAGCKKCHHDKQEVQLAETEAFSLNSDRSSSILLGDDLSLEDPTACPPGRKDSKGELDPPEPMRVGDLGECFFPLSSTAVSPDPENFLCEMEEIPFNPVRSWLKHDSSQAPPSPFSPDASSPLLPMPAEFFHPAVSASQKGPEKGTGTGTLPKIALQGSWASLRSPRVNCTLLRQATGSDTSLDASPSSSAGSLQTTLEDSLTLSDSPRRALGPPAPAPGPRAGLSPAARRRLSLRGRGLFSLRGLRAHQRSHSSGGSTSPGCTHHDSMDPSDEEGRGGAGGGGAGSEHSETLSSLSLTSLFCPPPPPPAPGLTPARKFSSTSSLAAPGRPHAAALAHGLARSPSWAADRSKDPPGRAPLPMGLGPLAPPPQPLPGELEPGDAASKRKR

In the case of `Cc1ncoc1-c1ccc(CC(=O)N[C@H](C)c2ccc(OCC(F)(F)F)cn2)cc1`, the Ratio in [1] came out at 1.1. Moreover, the inhibition constant Ki in data set [2] turned out to be 0.2 nM. Moreover, the figures for the bioavailability in [3] and in [7] were 100% and 50%, respectively. For the same molecule, the half-inhibitory concentration (IC50) in data set [4] is above 30000 nM; in data set [6], 5.3 nM; in [10], 206 nM; in [11] it was above 10000 nM. Moreover, the figures for the fraction unbound at 5 µM in data set [5] and in data set [9] were 0.052 and 0.016, respectively. Besides, the half-life in data set [8] is 24 min; in [13], 66 min. The Vd in [12] turned out to be 0.3 L/kg; in data set [21], 1.1 L/kg. Further, the clearance was 3.6 mL/min/kg in [14] and 35 mL/min/kg in [20]. Further, in data set [15], the Papp worked out at 35 ×10⁻⁶ cm/s. Also, the Ratio IC50 in [16] is above 80. In addition, the activity at 10 µM in [17] turned out to be 7%. The PB in data set [18] was 1558 pmol. The inhibition in vivo at 3 mg/kg in data set [19] turned out to be 72%.
In the case of `C[C@@H](NC(=O)Cc1ccc(-c2cnn3ncccc23)cc1)c1ccc(OCC(F)(F)F)cn1`, in data set [1], the Ratio is reported as 1.3. Also, the IC50 in [4] was above 30000 nM; in [6], 5.4 nM; in data set [10], 397 nM; in data set [11], above 10000 nM. In data set [15], this molecule gave a Papp of 38 ×10⁻⁶ cm/s. The Ratio IC50 in data set [16] was above 80. In addition, in [17], the activity at 10 µM worked out at 0%. The PB in data set [18] was 244 pmol. In addition, the inhibition in vivo at 3 mg/kg in [19] came to 85%.
Turning to `C[C@@H](NC(=O)Cc1ccc(N2CC[C@H](F)C2)cc1)c1ccc(OCC(F)(F)F)cn1`, in [2], the Ki was determined as 0.3 nM. Also, the values for the IC50 in [6], in data set [10] and in data set [11] were 3.7 nM, 249 nM and above 10000 nM, respectively. Besides, the Papp in [15] was determined as 41 ×10⁻⁶ cm/s. For the same molecule, in [17], the activity at 10 µM stood at 31%.
Take `Cc1nccnc1-c1ccc(CC(=O)N[C@H](C)c2ccc(OCC(F)(F)F)cn2)cc1`: the fraction unbound at 5 µM was determined as 0.032 in [22], 0.123 in [5], 0.155 in [9] and 0.146 in data set [36]. In addition, the “inhibition (INH)” value in data set [23] is reported as “Not Active”. Further, the Ratio in [1] was 1.3. Moreover, in data set [24], the PB came out at 8 pmol. The Activity result in data set [25] is “Dose-dependent effect”. In addition, the half-life is 31.8 min in data set [26]; 14 min in data set [28]; 14.4 min in data set [8]; 180 min in [32]; 48.6 min in data set [13]. Further, the Ki in [2] turned out to be 5.5 nM. For the same molecule, the bioavailability was 71% in data set [3], 23% in data set [7] and 5% in data set [29]. Also, the IC50 was above 30000 nM in [4]; 31.3 nM in data set [6]; 1920 nM in data set [10]; above 10000 nM in data set [11]; 264 nM in data set [33]; 12000 nM in [34]. The clearance worked out at 19.3 mL/min/kg in data set [27], 11.8 mL/min/kg in [14] and 30.3 mL/min/kg in data set [20]. Moreover, the figures for the inhibition in data set [30] and in data set [37] were 12% and 20%, respectively. Moreover, in data set [31], the inhibition at 30 µM worked out at 41%. Also, the Vd in data set [12] was found to be 0.36 L/kg; in data set [38], 0.74 L/kg; in data set [21], 0.59 L/kg. The molecule further yielded a Papp in [15] of 44 ×10⁻⁶ cm/s. In [16], the Ratio IC50 is above 80. Besides, in data set [35], the Time is 1.5 h. Besides, in [17], the activity at 10 µM came out at 8%. Also, the inhibition in vivo at 3 mg/kg in data set [19] amounted to 87%. For the same molecule, the Cmax in [39] was 1820 nM.
Regarding `C[C@@H](NC(=O)Cc1ccc(C2CC2)cc1)c1ccc(OCC(F)(F)F)cn1`, in data set [1], the Ratio was found to be 0.7. The Ki in [2] was 1.2 nM. Moreover, the IC50 in data set [4] is above 10000 nM; in data set [6], 9.4 nM; in data set [10], 384 nM; in [11], above 10000 nM. The apparent permeability coefficient (Papp) in data set [15] is 45 ×10⁻⁶ cm/s. For the same molecule, the Ratio IC50 in data set [16] was above 80. For the same molecule, in data set [17], the activity at 10 µM was 17%. Also, the inhibition in vivo at 3 mg/kg in data set [19] is 87%.
